Source: US20260226417A1, “METHOD FOR INHIBITING AGING OF STEM CELLS” (ENCELL CO., LTD, priority 2023, published 2026)

Columns and labels:
[1] = test system: replicative senescence-induced human umbilical cord-derived mesenchymal stem cells (P18); test: Cell proliferation by CCK-8 assay, 6 days, replicative senescence model (P18); type: cell-based; conditions: 160 μM
Procedure: Example 4. Validation of gut microbiota-derived metabolite candidate for senescence control Control cells (P5) and replicative senescence-induced human umbilical cord-derived mesenchymal stem cells (P18) were treated with nervonic acid (160 μM) to analyze the effects of the gut microbiota-derived metabolite having the ability to control senescence of stem cells on the proliferation of stem cells and cell size.
Specifically, control cells (p5) and replicative senescence-induced human umbilical cord-derived mesenchymal stem cells (P18) were exposed to nervonic acid (160 μM) in culture medium, followed by culture for 6 days while replacing the medium every 3 days, and cell proliferation was assessed using CCK-8 assay.

[2] = test system: human umbilical cord blood-derived mesenchymal stem cells (UCB-MSCs/passage 16); test: β-galactosidase staining, senescent UCB-MSCs; type: cell-based; conditions: UCB-MSCs passage 16, 3 days
Text: Human placenta-derived mesenchymal stem cells (pl-mscs) Were Isolated From Placentas Separated according to the previously reported method of Choi et al. (PLOS ONE, (2017) 12 (2): e0172642), umbilical cord blood-derived mesenchymal stem cells (UCB-MSCs) were isolated from the umbilical cord blood separated according to the method of Kim et al. (FEBS Letters, (2010) 584:3601-3608), and adipose tissue-derived mesenchymal stem cells (AD-MSCs) were isolated from adipose tissue separated according to the previously reported method of Palumbo et al. (Int. J. Mol. Sci. (2018) 19:1987).
Each of the obtained mesenchymal stem cells was subcultured in aMEM (a-modified Minimum Essential Media) containing 10% fetal bovine serum (FBS) and 0.5% gentamicin (10 mg/ml).
The replicative senescence models of human adipose-derived mesenchymal stem cells (AD-MSCs/passage 18), human bone marrow-derived mesenchymal stem cells (BM-MSCs/passage 15), human umbilical cord blood-derived mesenchymal stem cells (UCB-MSCs/passage 16), and human placenta-derived mesenchymal stem cells (PL-MSCs/passage 18) established as described above were treated with nervonic acid for 3 days, and β-galactosidase staining was performed to observe the extent of senescence.

[3] = test system: senescence markers P16 and P21; test: qRT-PCR of senescence markers p16 and p21 at P10 after treatment at each passage; type: cell-based, human; conditions: 160 μM for 24 hours at each passage
Procedure: Specifically, qRT-PCR performed in this example is as follows: after treating the replicative senescence model (P18) with nervonic acid for 3 days, total RNA was extracted using Trizol (Invitrogen, MA, USA) according to the method provided by the vendor. After quantifying the extracted total RNA, random hexamer and dNTP were added, and PCR was performed at 65° C. for 5 minutes. 5× SSIV buffer, 100 mM DTT, RNAse OUT, and Superscript IV RT were added and reverse transcription was performed to synthesize cDNA, and then qRT-PCR was performed to measure gene expression, and the expression levels were compared through 2^−ΔΔCt analysis.
Example 8. Confirmation Of anti-senescence efficacy by treating various human tissue-derived mesenchymal stem cells with nervonic acid Human-derived mesenchymal stem cells were treated with nervonic acid (160 μM) at each passage during cell culture from control cells (P5) to P10 to determine whether continuous treatment with nervonic acid during cell culture at early passage numbers was able to delay cellular senescence.
Specifically, from the day after human-derived mesenchymal stem cells were subcultured, treatment with 160 μM nervonic acid or an equivalent amount of DMSO (control) for 24 hours was performed, followed by replacement with the existing culture medium the next day. The above process was repeated to perform subculture up to P10 (passage 10). […]

[4] = test system: replicative senescence model of human umbilical cord-derived mesenchymal stem cells (P18); test: Screening of gut microbiota-derived metabolite library for senescence control (primary HTS and secondary cell viability screening); type: cell-based
Text: Example 2. Screening of gut microbiota-derived metabolites for senescence control of human umbilical cord-derived mesenchymal stem cells In order to determine differences in metabolite reactivity depending on the senescence status of human umbilical cord-derived mesenchymal stem cells, a library of 485 gut microbiota-derived metabolites was used to select candidates that inhibit the proliferation or cause death of replicative senescent stem cells.
Thereby, 13 candidates showing low viability only in the replicative senescence model (P18) without affecting the viability of the control cells (P5) were selected by primary screening, and the experimental group was treated with the metabolite at 25 μM, 50 μM, 100 μM, 200 μM, 300 μM, 400 μM, and 500 μM to determine the optimal concentration of the metabolite by secondary screening, analyzing the senescence control effect at a total of 7 metabolite concentrations.

[5] = test system: Annexin V, an apoptosis marker, in muscle tissue; test: Annexin V immunohistochemical staining in muscle tissue of muscle disease mouse model after injection of treated P18 cells; type: in vivo; conditions: P18 cells treated with 160 μM for 72 hours, 5×10^4 cells per mouse via tail vein, one week after injection
Procedure: A replicative senescence model (P18) was treated with nervonic acid (160 μM) and then injected into a muscle disease mouse model to assess the effect of nervonic acid treatment on the therapeutic efficacy of the replicative senescence model (P18) in terms of reducing apoptosis in muscle tissue.
Specifically, the muscle disease mouse model used was C57BL/10ScSn-Dmdmdx/J (mdx mouse) , and C57BL/10J with the same genetic background was used as a control group. All experiments were conducted using mice aged 4 to 5 months. The cells to be injected were human umbilical cord-derived young mesenchymal stem cells (control group) (P5) and replicative senescence model (P18). […]
In order to assess the extent of apoptosis in the muscle tissue of a muscle disease mouse model after injecting mesenchymal stem cells for each condition, the extent of apoptosis in the tissue was determined through immunohistochemical staining for Annexin V, an apoptosis marker. […] Then, the secondary antibody (fluorescence-labeled polymer anti-rabbit) was added and incubated for […] followed by mounting, DAPI staining, washing, and then observation and photography under a fluorescence microscope.

CCCCCCCC/C=C\CCCCCCCCCCCCCC(=O)O [nervonic acid]
cell proliferation [1]: proliferation was significantly reduced
progression of senescence (β-galactosidase staining) compared to control group (DMSO) [2]: progression of senescence was significantly inhibited
p16 mRNA expression, fold compared to control group (DMSO) [3]: 0.84±0.05 fold
p21 mRNA expression, fold compared to control group (DMSO) [3]: 0.84±0.03 fold
senescence control effect in secondary screening ([4]; 13 candidates tested at 25-500 μM (7 concentrations), P18 vs P5): greatest effect on controlling senescence
concentration exhibiting senescence control efficacy in secondary screening ([4]; secondary screening): about 200 μM
Annexin V expression level (immunohistochemical staining) compared to mdx control group [5]: significantly reduced
